What all share (test): KINOMEscan competition binding
One assay has as its target T1, LATS1 (Homo sapiens, UniProt O95835).
T1 sequence (O95835 1-1130): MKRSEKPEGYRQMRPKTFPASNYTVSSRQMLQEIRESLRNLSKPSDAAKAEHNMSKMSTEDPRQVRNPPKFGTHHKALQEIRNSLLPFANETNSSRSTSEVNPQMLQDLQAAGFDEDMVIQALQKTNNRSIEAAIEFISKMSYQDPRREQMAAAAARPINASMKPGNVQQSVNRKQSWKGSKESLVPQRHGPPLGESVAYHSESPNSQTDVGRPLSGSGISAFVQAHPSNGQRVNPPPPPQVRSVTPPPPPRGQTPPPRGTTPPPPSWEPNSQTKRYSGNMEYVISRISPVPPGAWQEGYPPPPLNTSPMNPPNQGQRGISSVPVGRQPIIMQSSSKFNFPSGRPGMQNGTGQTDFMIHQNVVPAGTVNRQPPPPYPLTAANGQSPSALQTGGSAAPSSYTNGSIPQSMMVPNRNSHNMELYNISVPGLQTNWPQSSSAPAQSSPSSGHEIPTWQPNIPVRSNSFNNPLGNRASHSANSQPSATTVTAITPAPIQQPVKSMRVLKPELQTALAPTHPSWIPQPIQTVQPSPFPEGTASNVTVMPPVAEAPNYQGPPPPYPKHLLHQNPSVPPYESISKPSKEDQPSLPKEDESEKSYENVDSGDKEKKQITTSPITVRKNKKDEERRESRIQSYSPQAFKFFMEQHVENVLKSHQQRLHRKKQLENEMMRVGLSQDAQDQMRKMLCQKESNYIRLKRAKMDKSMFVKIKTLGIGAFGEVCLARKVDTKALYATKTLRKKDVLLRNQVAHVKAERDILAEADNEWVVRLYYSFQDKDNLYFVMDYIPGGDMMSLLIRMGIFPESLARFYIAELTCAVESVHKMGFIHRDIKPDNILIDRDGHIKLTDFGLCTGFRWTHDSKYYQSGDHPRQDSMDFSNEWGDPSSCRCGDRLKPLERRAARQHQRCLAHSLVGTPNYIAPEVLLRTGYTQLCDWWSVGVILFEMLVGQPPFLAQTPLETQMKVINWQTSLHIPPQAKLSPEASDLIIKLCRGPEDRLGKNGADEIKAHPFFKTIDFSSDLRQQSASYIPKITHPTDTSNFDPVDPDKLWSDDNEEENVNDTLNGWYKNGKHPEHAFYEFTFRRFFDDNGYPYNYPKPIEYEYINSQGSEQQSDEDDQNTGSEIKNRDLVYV
Particulars: read-out: %Inh LATS1.

A further assay addresses T2, DDR2 (Homo sapiens, UniProt Q16832).
T2 sequence (Q16832 22-855): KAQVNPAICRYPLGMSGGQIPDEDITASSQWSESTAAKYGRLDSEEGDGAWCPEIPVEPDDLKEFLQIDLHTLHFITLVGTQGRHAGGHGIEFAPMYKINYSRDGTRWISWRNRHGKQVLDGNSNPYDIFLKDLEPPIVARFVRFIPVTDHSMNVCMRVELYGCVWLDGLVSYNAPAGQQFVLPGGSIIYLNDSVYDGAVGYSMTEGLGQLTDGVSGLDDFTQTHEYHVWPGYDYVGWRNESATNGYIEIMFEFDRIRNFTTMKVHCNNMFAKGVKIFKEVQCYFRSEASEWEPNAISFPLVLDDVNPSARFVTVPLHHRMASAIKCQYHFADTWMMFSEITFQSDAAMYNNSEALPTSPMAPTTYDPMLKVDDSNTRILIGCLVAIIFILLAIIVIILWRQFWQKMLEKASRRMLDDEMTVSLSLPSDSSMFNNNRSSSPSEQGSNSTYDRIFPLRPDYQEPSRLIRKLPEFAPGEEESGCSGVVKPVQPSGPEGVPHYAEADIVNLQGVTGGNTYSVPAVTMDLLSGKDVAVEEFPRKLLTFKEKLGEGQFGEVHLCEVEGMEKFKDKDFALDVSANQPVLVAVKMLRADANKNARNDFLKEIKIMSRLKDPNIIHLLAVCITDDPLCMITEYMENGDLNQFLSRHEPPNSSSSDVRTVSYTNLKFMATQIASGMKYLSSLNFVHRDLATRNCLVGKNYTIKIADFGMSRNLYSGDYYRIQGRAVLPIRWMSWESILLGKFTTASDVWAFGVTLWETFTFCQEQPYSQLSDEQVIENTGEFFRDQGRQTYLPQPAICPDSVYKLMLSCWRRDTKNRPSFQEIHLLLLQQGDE
The conditions noted are these: read-out: %Inh DDR2.

The target in the next assay is DAPK1 (Homo sapiens, UniProt P53355). Particulars: read-out: %Inh DAPK1.
A further assay concerns the target T3, FLT3 (Homo sapiens, UniProt P36888).
T3 sequence (P36888 27-993): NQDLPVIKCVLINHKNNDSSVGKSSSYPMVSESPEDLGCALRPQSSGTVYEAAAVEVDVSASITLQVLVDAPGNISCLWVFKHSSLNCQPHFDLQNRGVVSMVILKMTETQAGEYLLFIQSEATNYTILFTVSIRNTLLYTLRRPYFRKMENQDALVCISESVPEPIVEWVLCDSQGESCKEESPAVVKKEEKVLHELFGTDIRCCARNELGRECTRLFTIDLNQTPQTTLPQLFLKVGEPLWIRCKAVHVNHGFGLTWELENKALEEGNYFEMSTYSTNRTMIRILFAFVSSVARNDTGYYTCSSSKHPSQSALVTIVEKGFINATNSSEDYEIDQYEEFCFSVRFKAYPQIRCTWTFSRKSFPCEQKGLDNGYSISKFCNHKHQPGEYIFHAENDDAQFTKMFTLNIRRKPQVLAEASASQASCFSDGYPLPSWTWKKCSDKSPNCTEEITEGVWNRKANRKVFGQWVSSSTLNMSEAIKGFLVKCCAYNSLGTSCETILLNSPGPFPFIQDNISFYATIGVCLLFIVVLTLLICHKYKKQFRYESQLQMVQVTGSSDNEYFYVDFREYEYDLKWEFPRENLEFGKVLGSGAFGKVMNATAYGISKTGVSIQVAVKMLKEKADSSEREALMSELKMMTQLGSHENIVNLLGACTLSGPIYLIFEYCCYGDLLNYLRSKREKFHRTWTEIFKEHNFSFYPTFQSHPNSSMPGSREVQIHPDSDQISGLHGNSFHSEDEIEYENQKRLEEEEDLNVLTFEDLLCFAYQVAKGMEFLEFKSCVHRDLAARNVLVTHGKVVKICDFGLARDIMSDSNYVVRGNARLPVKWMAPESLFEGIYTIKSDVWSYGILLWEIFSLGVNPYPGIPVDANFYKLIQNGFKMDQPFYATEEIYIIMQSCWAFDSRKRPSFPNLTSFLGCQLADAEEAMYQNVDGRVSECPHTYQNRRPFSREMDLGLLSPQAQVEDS
Particulars: read-out: %Inh FLT3.

We go through 5 molecules from article PMC5540273, “Progress towards a public chemogenomic set for protein kinases and a call for contributions” (PLoS ONE, 2017).

Molecules are shown by their SMILES.

DAPK1, sequence (P53355 whole entry): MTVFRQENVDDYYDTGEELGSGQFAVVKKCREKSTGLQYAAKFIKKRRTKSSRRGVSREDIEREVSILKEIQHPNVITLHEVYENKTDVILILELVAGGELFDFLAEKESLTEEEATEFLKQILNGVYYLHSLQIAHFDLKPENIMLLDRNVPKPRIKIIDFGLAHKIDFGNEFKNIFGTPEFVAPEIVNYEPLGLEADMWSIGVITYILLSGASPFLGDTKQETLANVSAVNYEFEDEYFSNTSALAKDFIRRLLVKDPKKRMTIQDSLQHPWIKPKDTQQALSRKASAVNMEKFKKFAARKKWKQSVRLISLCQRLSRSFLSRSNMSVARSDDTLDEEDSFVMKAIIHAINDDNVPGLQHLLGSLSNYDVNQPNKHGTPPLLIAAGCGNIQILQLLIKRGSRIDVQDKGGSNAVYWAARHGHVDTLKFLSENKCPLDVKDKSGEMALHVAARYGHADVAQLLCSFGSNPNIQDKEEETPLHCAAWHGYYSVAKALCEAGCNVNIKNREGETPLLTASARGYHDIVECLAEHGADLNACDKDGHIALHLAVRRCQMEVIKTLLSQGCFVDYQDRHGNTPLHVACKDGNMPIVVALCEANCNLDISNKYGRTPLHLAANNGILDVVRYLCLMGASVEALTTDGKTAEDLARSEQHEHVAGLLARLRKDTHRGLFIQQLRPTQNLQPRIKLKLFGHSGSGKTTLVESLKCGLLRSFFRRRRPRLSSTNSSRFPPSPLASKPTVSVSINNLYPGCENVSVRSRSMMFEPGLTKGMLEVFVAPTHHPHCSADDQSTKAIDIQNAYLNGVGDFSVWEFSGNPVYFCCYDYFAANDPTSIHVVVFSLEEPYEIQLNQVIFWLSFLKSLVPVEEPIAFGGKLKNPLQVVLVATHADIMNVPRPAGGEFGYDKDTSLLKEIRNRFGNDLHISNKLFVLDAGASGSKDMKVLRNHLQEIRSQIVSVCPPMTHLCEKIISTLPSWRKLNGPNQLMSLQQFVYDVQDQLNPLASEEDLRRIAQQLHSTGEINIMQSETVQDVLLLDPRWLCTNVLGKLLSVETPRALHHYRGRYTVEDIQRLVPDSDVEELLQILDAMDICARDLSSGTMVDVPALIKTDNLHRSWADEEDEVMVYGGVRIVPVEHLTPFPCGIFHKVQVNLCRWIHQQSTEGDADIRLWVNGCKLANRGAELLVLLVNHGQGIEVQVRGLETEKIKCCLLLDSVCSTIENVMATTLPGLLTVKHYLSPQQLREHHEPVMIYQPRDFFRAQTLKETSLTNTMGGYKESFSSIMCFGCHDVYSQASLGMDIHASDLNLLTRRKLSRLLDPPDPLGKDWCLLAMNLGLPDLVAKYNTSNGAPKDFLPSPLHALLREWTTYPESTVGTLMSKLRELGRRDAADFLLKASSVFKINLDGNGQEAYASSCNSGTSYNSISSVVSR

As for `COc1cccc(OC)c1C(=O)Nc1cccc(-c2nn3ccccc3c2-c2ccnc(Nc3cccc(F)c3)n2)c1` [UNC10225310A], the inhibition at 1 µM on LATS1 worked out at 6%; at DDR2, 57%; on DAPK1, 10%; on FLT3 it was 49%.
In the case of `O=c1cc(N2CCOCC2)nc2n(Cc3cccc(Cl)c3Cl)c(C3CC3)nn12` [UNC10225469A], the inhibition at 1 µM on LATS1 was 0%; at DDR2, 0%; at DAPK1 it was 26%; on FLT3 it was 10%.
Regarding `Cn1cc(-c2cnc(N)c3c(-c4ccc5c(c4)CCN5C(=O)Cc4ccccc4)csc23)cn1` [UNC10225012A], the inhibition at 1 µM on LATS1 turned out to be 1%; at DDR2, 24%; at DAPK1, 38%; on FLT3 it was 99%.
With `CS(=O)(=O)Cc1ccc(Nc2nccc(-c3c(-c4cccc(NC(=O)C5CCCCC5)c4)nn4ncccc34)n2)cc1` [UNC10225159A], the inhibition at 1 µM at LATS1 worked out at 0%; on DDR2, 54%; on DAPK1 it was 0%; on FLT3, 88%.
Turning to `Cc1ccc(NC(=O)Nc2cccc(C(F)(F)F)c2)cc1` [UNC10225187A], the inhibition at 1 µM at LATS1 worked out at 0%; on DDR2, 65%; at DAPK1, 18%; at FLT3, 59%.
